Patent US5968965A, “Inhibitors of farnesyl-protein transferase” (Merck & Co., Inc., priority 1997, dated 1999)
Where a name gives a salt, the structure may show the parent alone.

Biological target: T1, human FPTase (Homo sapiens, UniProt P49354+P49356)
T1 construct: made in house
Experiment: In vitro inhibition of Ras farnesyl transferase (human FPTase)
Assay type: biochemical
Conditions: [3H]-FPP incorporation, 100 nM Ras-CVIM, 30 min; read-out: IC50 against human FPTase

IC50: < 10 µM
SMILES: N#Cc1ccc(Cn2cncc2CCC(=O)Nc2cccc(Cl)c2)cc1 [Example 1, N-(3-chlorophenyl)-3-[1-(4-cyanobenzyl)-5-imidazolyl]propionamide hydrochloride]
